Experimental data: patent US11149046B2, “Antibacterial sideromycins” (Hsiri Therapeutics, Inc., priority 2014, dated 2021)
In brackets after ≈: the same amount, converted by molar mass. Entries after “also recorded” stand apart in the source; their conditions may differ. Like-named read-outs stand apart in the source and are kept apart here.

How the values were obtained:
P. aeruginosa KW799/wt = experiment: MIC determination; assay type: cell-based, Pseudomonas aeruginosa; conditions: read-out: MIC
Excerpt: (§1) Table 3 that was included in the first Example 4 section provides antibacterial data for the first synthetic sideromycins we prepared and studied. The second Example 4 section elaborated and expanded on that data with inclusion of representative antibacterial data in the text and associated pictures of Petri dish assays. MIC (minimum inhibition concentration) is given in μM and AD (agar diffusion zones of inhibition are given in mm from Kirby-Bauer Petri dish growth inhibition studies).

Pa4 = experiment: MIC determination; assay type: cell-based, Pseudomonas aeruginosa; conditions: Pseudomonas aeruginosa; Table 6
Excerpt: as §1

Pa6 = experiment: MIC determination; assay type: cell-based, Pseudomonas aeruginosa; conditions: Pseudomonas aeruginosa; Table 6; read-out: MIC
Excerpt: (§2) MIC (minimum inhibition concentration) is given in μM and AD (agar diffusion zones of inhibition are given in mm from Kirby-Bauer Petri dish growth inhibition studies).

[1] = tested on: Pa-Da-1304 CF patient isolate; experiment: MIC determination; assay type: cell-based, Pseudomonas aeruginosa; conditions: Pseudomonas aeruginosa; Table 6
Excerpt: as §2
We obtained a clinical isolate of Pseudomonas from a cystic fibrosis patient.

A. baumannii ATCC 17961 = experiment: MIC determination; assay type: cell-based, Acinetobacter baumannii; conditions: read-out: MIC
Excerpt: as §1

[2] = tested on: Pseudomonas aeruginosa 01 (Pa01); experiment: MIC determination; assay type: cell-based; conditions: read-out: MIC
Excerpt: as §1

E. coli DC0 = experiment: Agar diffusion (Kirby-Bauer) assay; assay type: cell-based; conditions: Table 5
Excerpt: as §1

E. coli DC2 = experiment: Agar diffusion (Kirby-Bauer) assay; assay type: cell-based; conditions: Table 5
Excerpt: as §1

[3] = tested on: Pseudomonas aeruginosa KW799/wt; experiment: Agar diffusion (Kirby-Bauer) assay; assay type: cell-based
Excerpt: as §1

[4] = tested on: Pseudomonas aeruginosa KW799/61; assay type: cell-based; conditions: for AD = agar diffusion inhibition zones: Table 5
Excerpt: as §2

[5] = tested on: Acinetobacter baumannii ATCC 17961; experiment: Agar diffusion (Kirby-Bauer) assay, with and without hydrogel; assay type: cell-based; conditions: for AD = agar diffusion inhibition zones: Table 5, head prints A. baumannii only
Excerpt: as §1
We investigated whether the sideromycin absorbed in the gel be able to diffuse out of the gel and into the agar to effect antibacterial growth. As a control, the sideromycin alone, without gel, was added in a separate 9 mm well, as usual.
The second question was whether the sideromycin continue to be released and be able to effect bacterial growth inhibition over extended periods. Thus, additional identical agar plates were prepared and stored at 4° C. for 24, 48 and 72 hours to allow diffusion of the sideromycin (control and gel forms) into the agar before allowing the bacteria to grow in an incubator. Then after each time period, the Petri dishes were incubated at 37° C. for 20 hours to promote bacteria growth in the agar. […] The study has been extended to as long as 168 hours (one week) with retention of antibiotic effectiveness.

[6] = tested on: strains of Pseudomonas and Acinetobacter; experiment: Antibacterial activity, general statements; assay type: cell-based; conditions: general statements of the text
Description: Antibiotic activity was determined using agar diffusion assays against representative Gram-negative bacteria, including Pseudomonas aeruginosa (Pa6), and several multidrug resistant forms of Acinetobacter baumannii. Representative results are shown in Table 1 and a corresponding picture of an actual petri dish showing the agar diffusion results (FIG. 4). […].

How did the MIC (P. aeruginosa KW799/wt; Pseudomonas aeruginosa, KW799/WT, Table 6) turn out when `CC(=O)Oc1cccc(C(=O)NCCCCN(CCCNC(=O)c2cccc(OC(C)=O)c2OC(C)=O)C(=O)CCC(=O)N[C@@H](CCCN(O)C(C)=O)C(=O)N[C@@H](C(=O)N[C@@H]2C(=O)N3C(C(=O)O)=C(Cl)CCC23)c2ccccc2)c1OC(C)=O` (stereo partly drawn) [MG-1-185] was run?
The MIC was 1.56 µM (≈ 1.86 µg/mL).

And the MIC (Pa4)?
The MIC was > 50 µM.

And the MIC (Pa6)?
Its MIC is > 50 µM.

What about the MIC [1] of the same compound?
The MIC was > 50 µM.

What about the MIC (A. baumannii ATCC 17961; Acinetobacter baumannii, ATCC17961, Table 6, head prints A. baumannii only) of the same compound?
Its MIC is 0.2 µM (≈ 0.238 µg/mL).

What about the MIC ([2]; Pseudomonas aeruginosa, Table 6) of the same compound?
The MIC was > 50 µM.

For `CC(=O)Oc1cccc(C(=O)NCCCCN(CCCNC(=O)c2cccc(OC(C)=O)c2OC(C)=O)C(=O)CCC(=O)N[C@@H](CCCN(O)C(C)=O)C(=O)N[C@@H](C(=O)N[C@@H]2C(=O)N3C2SC(C)(C)[C@@H]3C(=O)O)c2ccccc2)c1OC(C)=O` (stereo partly drawn) [MG-1-186], which MIC (Pa6) is on record?
The MIC was > 50 µM.

With `O=C(CCC(=O)N(CCCCNC(=O)c1cccc(O)c1O)CCCNC(=O)c1cccc(O)c1O)NCCCCCN(O)C(=O)CCCC(=O)NC(C(=O)NC1C(=O)N2C(C(=O)O)=C(Cl)CSC12)c1ccccc1` (stereo not drawn) [MG-1-285] as the compound, how does the MIC (A. baumannii ATCC 17961) read?
Its MIC is 0.025 µM (≈ 0.027 µg/mL).

Which results are given for `CC(=O)Oc1cccc(C(=O)NCCCCN(CC(=O)N[C@H](C(=O)N[C@@H]2C(=O)N3C(C(=O)O)=C(Cl)CC[C@H]23)c2ccccc2)C(=O)c2cccc(OC(C)=O)c2OC(C)=O)c1OC(C)=O` [YML-1-45cr]?
AD = agar diffusion inhibition zones (E. coli DC0): (AD = 31) mm; AD = agar diffusion inhibition zones (E. coli DC2): (AD = 38) mm; AD = agar diffusion inhibition zones ([3]; Table 5): (AD = 18) mm; zones of inhibition (in words) ([3]; wild type Pseudomonas, FIG. 8, 9, 12): sizable zone of inhibition; also recorded: impressive zones of inhibition; also recorded: significant activity; AD = agar diffusion inhibition zones [4]: (AD = 23) mm; zones of inhibition (in words) ([4]; outer membrane permeable mutant, FIG. 9 center panel): significant activity; zones of inhibition (in words) ([5]; Acinetobacter, FIG. 8, 9, 10): zones comparable to or even larger than our first sideromycin, 21; also recorded: impressive zones of inhibition; AD = agar diffusion inhibition zones [5]: (AD = 18) mm

Which MIC (P. aeruginosa KW799/wt; Table 7) does the source give for `O=C(CN(CCCCNC(=O)c1cccc(O)c1O)C(=O)c1cccc(O)c1O)NC(C(=O)NC1C(=O)N2C(C(=O)O)=C(Cl)CSC12)c1ccccc1` (stereo not drawn) [YML-1-109] here?
Its MIC is 0.05 µM (≈ 0.0384 µg/mL).

What about the MIC (A. baumannii ATCC 17961; Table 7) of the same compound?
Its MIC is 0.05 µM (≈ 0.0384 µg/mL).

And the MIC ([2]; Table 7)?
The MIC was 1.56 µM (≈ 1.2 µg/mL).

And the “antibacterial activity (in words)” value [6]?
Its value is “comparable to the loracarbef conjugate YML-1-91”.

`CC(C)(C)OC(=O)NCCCCCN(O)C(=O)CCC(=O)N[C@@H](C(=O)N[C@@H]1C(=O)N2C1SC(C)(C)[C@@H]2C(=O)O)c1ccccc1` (stereo partly drawn) [YML-I-27] was tested. Which “AD = agar diffusion inhibition zones” value (E. coli DC0) did it give?
Its value is “(AD = 0) mm”.

And the “AD = agar diffusion inhibition zones” value (E. coli DC2)?
The value was “(AD = 26) mm”.

And the “AD = agar diffusion inhibition zones” value [4]?
Its value is “(AD = 24) (AD = 24) mm”.

And the “AD = agar diffusion inhibition zones” value [5]?
Its value is “(AD = 17) mm”.
